Test results: patent US11230542B2, “Inhibitors of integrated stress response pathway” (Praxis Biotech LLC, priority 2017, dated 2022)
Read-outs that look alike come from different tables or passages of the source.

Assays:
CHO cells = test: Protein translation assay (puromycin incorporation in CHO cells, unstressed or Tg-stressed); assay type: cell-based, Chinese hamster; settings: for activity at 0.1 µM / activity at 1 µM: Cricetulus griseus, media alone 100%; for activity at 0.1 µM: read-out: % Recovery of protein expression (100 nM test compound)
Description: CHO cells were maintained at 37° C. and 5% CO2 in DMEM supplemented with 10% fetal bovine serum (FBS), 2 mM L-glutamine, 100 U/ml penicillin, and 100 μg/ml streptomycin. After reaching 80% of confluence, cells were detached and seeded on 6 well plates in complete media, allowed to recover overnight and treated for 2 hours with 1 μM of the test compound (to assess protein synthesis levels in unstressed condition), or for 1 hour with 100 nM and 1 μM of the test compound and then co-treated with 300 nM Tg and 100 nM and 1 μM of the test compound (to assess the recovery of protein synthesis in a stressed condition). Cells treated with Tg alone were used as controls.
After the 2 hours treatments, media were replaced by adding 10 μg/ml puromycin (Sigma Aldrich) in complete media for 30 min. Media were removed and cells were lysed with SDS-PAGE lysis buffer. Lysates were transferred to 1.5 ml tubes and sonicated for 3 minutes and total protein amount were quantified using BCA Protein Assay Kit (Pierce). Equal amount of protein (30 μg) was loaded on SDS-PAGE gels. Proteins were transferred onto 0.2 μm PVDF membranes (BioRad) and probed with primary antibodies diluted in Tris-buffered saline supplemented with 0.1% Tween 20 and 3% bovine serum albumin.
(§1) Puromycin (12D10) antibody was used as primary antibody (Merck Millipore). A HRP-conjugated secondary antibody (Rockland) was employed to detect immune-reactive bands using enhanced chemiluminescence (ECL Western Blotting Substrate, Pierce). Quantification of protein bands was done by densitometry using ImageJ.
Percent increase of protein synthesis in unstressed cells (without Tg treatment) in the presence of media alone or certain test compounds is shown in Table 3 and FIG. 2. The percentage levels were normalized to the media alone condition, which correspond to 100% protein synthesis.
Percent recovery of protein synthesis in stressed cells (with Tg treatment) due to the test compounds at 100 nM or 1 μM is shown in FIGS. 3A and 3B, respectively, and in Table 3. The levels were normalized to the media alone and to Tg alone conditions, which correspond to 100% and 0% respectively.

ATF4 = ATF4 expression inhibition assay (thapsigargin-stressed HEK293T cells, western blot); assay type: cell-based; settings: Homo sapiens, HEK-293T; for IC50: 3 h with 100 nM Tg, test compound 1 nM to 1 μM; for inhibition at 0.1 µM: 3 h with 100 nM thapsigargin (Tg) and 100 nM test compound; for inhibition at 0.1 µM / inhibition at 1 µM: Tg alone 0%, untreated 100%; for inhibition at 1 µM: 3 h with 100 nM thapsigargin (Tg) and 1 μM test compound
Description: HEK293T cells were maintained at 37° C. and 5% CO2 in Dulbecco's Modified Eagle's Media (DMEM) supplemented with 10% fetal bovine serum (FBS), 2 mM L-glutamine, 100 U/ml penicillin, and 100 μg/ml streptomycin. […] Cells without treatment or cells treated with Tg alone were used as controls.
After 3 hours of treatment with Tg and the test compound, cells were lysed with SDS-PAGE lysis buffer. Lysates were transferred to 1.5 ml tubes and sonicated for 3 min, and total protein amounts were quantified using BCA Protein Assay Kit (Pierce). Equal amount of proteins were loaded on SDS-PAGE gels. Proteins were transferred onto 0.2 μm PVDF membranes (BioRad) and probed with primary antibodies diluted in Tris-buffered saline supplemented with 0.1% Tween 20 and 3% bovine serum albumin.
as §1, with “ATF4 (11815)” for “Puromycin (12D10)”, “(Cell Signaling Technologies).” for “(Merck Millipore).”, “horseradish peroxidase (HRP)-conjugated” for “HRP-conjugated”
Percentages of ATF4 inhibition after induction with Tg in the presence of 100 nM or 1 μM of certain test compounds are shown in Table 2 and FIG. 1. Percentage of ATF4 inhibition was calculated as the percent reduction normalized to Tg treatment (0% inhibition) and untreated cells (100% inhibition). Also shown in Table 2 is the calculated IC50 for the test compounds. […] Accordingly, inhibition of ATF4 expression as a result of the test compound indicates suppression of the ISR pathway.

[1] = CHO cells stressed with 300 nM Tg, Tg alone 0%
[2] = CHO cells stressed with 300 nM Tg, Tg alone 0%, read-out: % Recovery of protein expression (1 μM test compound)
[3] = unstressed CHO cells, 2 h, read-out: % Protein expression relative to untreated (1 μM test compound)

| IC50 (ATF4) | Structure (SMILES) | activity at 0.1 µM (CHO cells; [1]) | activity at 1 µM (CHO cells; [2]) | activity at 1 µM (CHO cells; [3]) | inhibition at 0.1 µM (ATF4) | inhibition at 1 µM (ATF4) | protein translation (CHO cells; summary of Table 3) | protein synthesis in a cell versus ATF4 translation (CHO cells; under ISR-stressed or non-ISR stressed conditions) |
| --- | --- | --- | --- | --- | --- | --- | --- | --- |
| 29.9 nM | O=C(NC1CCN(C[C@H](O)COc2ccc(Cl)c(F)c2)CC1)c1cc2cc(Cl)ccc2o1 (single isomer, unassigned) [Compound 149, (+)-5-chloro-N-(1-(3-(4-chloro-3-fluorophenoxy)-2-hydroxypropyl)piperidin-4-yl)benzofuran-2-carboxamide] | 107% | 281% | 138% | 62% | 96% |  |  |
| 33.1 nM | O=C(N[C@H]1CC[C@H](NCC(O)COc2ccc(Cl)c(F)c2)CC1)c1cc2cc(Cl)ccc2o1 (stereo partly drawn) [Compound 147, trans-5-chloro-N-(4-((3-(4-chloro-3-fluorophenoxy)-2-hydroxypropyl)amino)cyclohexyl)benzofuran-2-carboxamide] | 75.2% | 262% | 190% | 95% | 100% |  |  |
|  | O=C(NC1CCN(C[C@@H](O)COc2ccc(Cl)c(F)c2)CC1)c1cc2cc(Cl)ccc2o1 (single isomer, unassigned) [Compound 150, (−)-5-chloro-N-(1-(3-(4-chloro-3-fluorophenoxy)-2-hydroxypropyl)piperidin-4-yl)benzofuran-2-carboxamide] | 61% | 200% | 184% | 0% | 43% | increased protein translation | increase protein synthesis in a cell without full inhibition of ATF4 translation |
|  | O=C(COc1ccc(Cl)cc1)NC1CCN(C[C@@H](O)COc2ccc(Cl)cc2)CC1 (single isomer, unassigned) [Compound 16, (+)-2-(4-chlorophenoxy)-N-(1-(3-(4-chlorophenoxy)-2-hydroxypropyl)piperidin-4-yl)acetamide] |  |  |  | 0% | 38% |  |  |
| 2.1 nM | O=C(COc1ccc(Cl)c(F)c1)N[C@H]1CC[C@H](NC(=O)c2ccc3cc(Cl)ccc3n2)CC1 [Compound 23, trans-6-chloro-N-(4-(2-(4-chloro-3-fluorophenoxy)acetamido)cyclohexyl)quinoline-2-carboxamide] | 79.2% | 176% | 120% | 97% | 99% |  |  |
|  | O=C(N[C@H]1CC[C@H](NCCOc2ccc(Cl)c(F)c2)CC1)c1cc2cc(Cl)ccc2o1 [Compound 32, trans-5-chloro-N-(4-((2-(4-chloro-3-fluorophenoxy)ethyl)amino)cyclohexyl)benzofuran-2-carboxamide] | 37.7% | 234% | 137% | 38% | 78% |  |  |
|  | CC1(C)CC(NC(=O)COc2ccc(Cl)c(F)c2)CC(C)(C)N1CC(O)COc1ccc(Cl)c(F)c1 (stereo not shown) [Compound 25, 2-(4-chloro-3-fluorophenoxy)-N-(1-(3-(4-chloro-3-fluorophenoxy)-2-hydroxypropyl)-2,2,6,6-tetramethylpiperidin-4-yl)acetamide] | 11.4% | 22.9% |  | 0% | 0% |  |  |
| 353 nM | O=C(COc1ccc(Cl)cc1)N[C@H]1CC[C@H](NCC(O)COc2ccc(Cl)cc2)CC1 (stereo partly drawn) [Compound 1, trans-2-(4-chlorophenoxy)-N-(4-((3-(4-chlorophenoxy)-2-hydroxypropyl)amino)cyclohexyl)acetamide] | 63.8% | 160% | 152% | 0% | 71% |  |  |
|  | O=C(COc1ccc(Cl)c(F)c1)N[C@@H]1CCCN(CC(O)COc2ccc(Cl)c(F)c2)C1 (stereo partly drawn) [Compound 12, 2-(4-chloro-3-fluorophenoxy)-N-((3R)-1-(3-(4-chloro-3-fluorophenoxy)-2-hydroxypropyl)piperidin-3-yl)acetamide] |  |  |  | 0% | 0% |  |  |
|  | O=C(COc1ccc(Cl)c(F)c1)NC1CCN(C[C@@H](O)COc2ccc(Cl)c(F)c2)CC1 (single isomer, unassigned) [Compound 27, (+)-2-(4-chloro-3-fluorophenoxy)-N-(1-(3-(4-chloro-3-fluorophenoxy)-2-hydroxypropyl)piperidin-4-yl)acetamide] |  |  |  | 54% | 73% |  |  |
|  | O=C(COc1ccc(Cl)cc1)N[C@H]1CC[C@H](NC(=O)C(O)COc2ccc(Cl)cc2)CC1 (stereo partly drawn) [Compound 8, trans-3-(4-chlorophenoxy)-N-(4-(2-(4-chlorophenoxy)acetamido)cyclohexyl)-2-hydroxypropanamide] |  |  |  | 0% | 0% |  |  |
|  | O=C(COc1ccc(Cl)c(F)c1)N[C@H]1CCCN(CC(O)COc2ccc(Cl)c(F)c2)C1 (stereo partly drawn) [Compound 11, 2-(4-chloro-3-fluorophenoxy)-N-((3S)-1-(3-(4-chloro-3-fluorophenoxy)-2-hydroxypropyl)piperidin-3-yl)acetamide] |  |  |  | 0% | 0% |  |  |
|  | O=C(COc1ccc(Cl)c(F)c1)N1CCC(NCC(O)COc2ccc(Cl)c(F)c2)CC1 (stereo not shown) [Compound 14, 2-(4-chloro-3-fluorophenoxy)-1-(4-((3-(4-chloro-3-fluorophenoxy)-2-hydroxypropyl)amino)piperidin-1-yl)ethan-1-one] |  |  |  | 0% | 0% |  |  |
|  | O=C(COc1ccc(Cl)c(F)c1)N[C@H]1CC[C@H](NC(=O)C(O)COc2ccc(Cl)c(F)c2)CC1 (stereo partly drawn) [Compound 9, trans-3-(4-chloro-3-fluorophenoxy)-N-(4-(2-(4-chloro-3-fluorophenoxy)acetamido)cyclohexyl)-2-hydroxypropanamide] |  |  |  | 12% | 20% |  |  |
|  | O=C(COc1ccc(Cl)cc1)N[C@H]1CC[C@H](NC[C@H](O)COc2ccc(Cl)cc2)CC1 (single isomer, unassigned) [Compound 4, (−)-2-(4-chlorophenoxy)-N-(4-((3-(4-chlorophenoxy)-2-hydroxypropyl)amino)cyclohexyl)acetamide] |  |  |  | 31% | 54% |  |  |
|  | O=C(COc1ccc(Cl)c(F)c1)N[C@H]1CC[C@H](NC[C@H](O)COc2ccc(Cl)c(F)c2)CC1 (single isomer, unassigned) [Compound 7, (−)-2-(4-chloro-3-fluorophenoxy)-N-(4-((3-(4-chloro-3-fluorophenoxy)-2-hydroxypropyl)amino)cyclohexyl)acetamide] |  |  |  | 0% | 0% |  |  |

| Structure (SMILES) | IC50 (ATF4) | activity at 0.1 µM (CHO cells; [1]) | activity at 1 µM (CHO cells; [2]) | activity at 1 µM (CHO cells; [3]) | inhibition at 0.1 µM (ATF4) | inhibition at 1 µM (ATF4) | protein translation (CHO cells; summary of Table 3) | protein synthesis in a cell versus ATF4 translation (CHO cells; under ISR-stressed or non-ISR stressed conditions) |
| --- | --- | --- | --- | --- | --- | --- | --- | --- |
| O=C(COc1ccc(Cl)cc1)NC1CCN(CC(O)COc2ccc(Cl)cc2)CC1 (single isomer, unassigned; (-)) [Compound 15, (−)-2-(4-chlorophenoxy)-N-(1-(3-(4-chlorophenoxy)-2-hydroxypropyl)piperidin-4-yl)acetamide] | 52.1 nM | 35.6% | 159% | 68.3% | 77% | 99% |  |  |
